Test results from patent US12599136B2, “Substituted isophthalic acid diamides and their use as herbicides” (Bayer Aktiengesellschaft, priority 2020, dated 2026).

Assays:
Type in all cases: in vivo
Alopecurus myosuroides [1] = test: Post-emergence herbicidal action against ALOMY
Outline: (§1)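 A WP or EC formulation diluted in water with 0.2% wetting agent was sprayed at 600 to 800 l/ha onto one-leaf-stage plants grown in sandy loam. About 3 weeks later, action was rated visually in percent, 100% being dead plants.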

Pharbitis purpurea [2] = test: Pre-emergence herbicidal action against PHBPU; conditions: 320 g/ha; visual score after 3 weeks vs untreated controls
Outline: (§2)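 Greenhouse pots of sandy loam held seeds covered with soil, onto which the compound was applied before emergence. An aqueous suspension or emulsion of WP or EC was used at 600 to 800 l/ha with 0.2% wetting agent. Percent damage was judged visually at 3 weeks.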

Avena fatua [3] = test: Pre-emergence herbicidal action against AVEFA; conditions: visual score after 3 weeks vs untreated controls
Outline: as §2

Abutilon theophrasti [4] = test: Post-emergence herbicidal action against ABUTH
Outline: as §1

Amaranthus retroflexus [5] = test: Pre-emergence herbicidal action against AMARE; conditions: visual score after 3 weeks vs untreated controls
Outline: as §2

Lolium rigidum [6] = test: Pre-emergence herbicidal action against LOLRI
Outline: as §2

Amaranthus retroflexus [7] = test: Post-emergence herbicidal action against AMARE; conditions: visual assessment about 3 weeks after treatment
Outline: as §1

Matricaria inodora [8] = test: Post-emergence herbicidal action against MATIN; conditions: visual assessment about 3 weeks after treatment
Outline: as §1

Cyperus esculentus [9] = test: Post-emergence herbicidal action against CYPES; conditions: 80 g/ha, visual assessment about 3 weeks after treatment
Experimental: (§3) Seeds of monocotyledonous and dicotyledonous weed and crop plants are laid out in sandy loam soil in wood-fiber pots, covered with soil and cultivated in a greenhouse under good growth conditions. 2 to 3 weeks after sowing, the test plants are treated at the one-leaf stage. The compounds of the invention, formulated in the form of wettable powders (WP) or as emulsion concentrates (EC), are then sprayed onto the green parts of the plants in the form of an aqueous suspension or emulsion at a water application rate equivalent to 600 to 800 l/ha, with addition of 0.2% wetting agent. After the test plants have been left to stand in the greenhouse under optimal growth conditions for about 3 weeks, the action of the preparations is assessed visually in comparison to untreated controls (herbicidal action in percent (%): 100% activity=the plants have died, 0% activity=like control plants). […] The tables below illustrate, in an illustrative manner, the post-emergence herbicidal action of the compounds of the invention, the herbicidal activity being stated in percent.

Veronica persica [10] = test: Pre-emergence herbicidal action against VERPE; conditions: 320 g/ha
Outline: as §2

Viola tricolor [11] = test: Post-emergence herbicidal action against VIOTR
Outline: as §1

Alopecurus myosuroides [12] = test: Pre-emergence herbicidal action against ALOMY; conditions: visual score after 3 weeks vs untreated controls
Outline: as §2

Veronica persica [13] = test: Post-emergence herbicidal action against VERPE; conditions: 80 g/ha, visual assessment about 3 weeks after treatment
Outline: as §1

Avena fatua [14] = test: Post-emergence herbicidal action against AVEFA; conditions: visual assessment about 3 weeks after treatment
Outline: as §1

Cyperus esculentus [15] = test: Pre-emergence herbicidal action against CYPES; conditions: visual score after 3 weeks vs untreated controls
Outline: as §2

Hordeum murinum [16] = test: Pre-emergence herbicidal action against HORMU; conditions: 320 g/ha; visual score after 3 weeks vs untreated controls
Outline: as §2

Setaria viridis [17] = test: Pre-emergence herbicidal action against SETVI
Outline: as §2

Pharbitis purpurea [18] = test: Post-emergence herbicidal action against PHBPU; conditions: visual assessment about 3 weeks after treatment
Outline: as §1

Matricaria inodora [19] = test: Pre-emergence herbicidal action against MATIN; conditions: visual score after 3 weeks vs untreated controls
Outline: as §2

Echinochloa crus-galli [20] = test: Pre-emergence herbicidal action against ECHCG; conditions: visual score after 3 weeks vs untreated controls
Outline: as §2

Viola tricolor [21] = test: Pre-emergence herbicidal action against VIOTR
Outline: as §2

Stellaria media [22] = test: Pre-emergence herbicidal action against STEME
Outline: as §2

Stellaria media [23] = test: Post-emergence herbicidal action against STEME; conditions: visual assessment about 3 weeks after treatment
Outline: as §1

Setaria viridis [24] = test: Post-emergence herbicidal action against SETVI; conditions: visual assessment about 3 weeks after treatment
Outline: as §1

Hordeum murinum [25] = test: Post-emergence herbicidal action against HORMU
Experimental: as §3

Abutilon theophrasti [26] = test: Pre-emergence herbicidal action against ABUTH; conditions: visual score after 3 weeks vs untreated controls
Outline: as §2

Echinochloa crus-galli [27] = test: Post-emergence herbicidal action against ECHCG; conditions: visual assessment about 3 weeks after treatment
Outline: as §1

Polygonum convolvulus [28] = test: Post-emergence herbicidal action against POLCO; conditions: visual assessment about 3 weeks after treatment
Experimental: as §3

Polygonum convolvulus [29] = test: Pre-emergence herbicidal action against POLCO
Outline: as §2

Lolium rigidum [30] = test: Post-emergence herbicidal action against LOLRI; conditions: 80 g/ha
Experimental: as §3

[31] = Dosage column 320 g/ha (heading prints 3200 g/ha)

CCCn1nnnc1NC(=O)c1ccc(C(F)(F)F)c(C(=O)N(C)CC)c1Cl [Example 3-124]
90%: Pre-emergence action against PHBPU (Pharbitis purpurea [2]) | Pre-emergence action against AMARE (Amaranthus retroflexus [5]; 20 g/ha) | Post-emergence action against MATIN in % (Matricaria inodora [8]; 5 g/ha) | Pre-emergence action against VERPE (Veronica persica [10]) | Pre-emergence action against ALOMY (Alopecurus myosuroides [12]; 320 g/ha) | Pre-emergence action against CYPES (Cyperus esculentus [15]; 320 g/ha) | Pre-emergence action against SETVI (Setaria viridis [17]; 80 g/ha) | Post-emergence action against PHBPU in % (Pharbitis purpurea [18]; 5 g/ha) | Post-emergence action against PHBPU in % (Pharbitis purpurea [18]; 20 g/ha) | Pre-emergence action against MATIN (Matricaria inodora [19]; 80 g/ha) | Pre-emergence action against MATIN (Matricaria inodora [19]; 320 g/ha) | Pre-emergence action against STEME (Stellaria media [22]; 20 g/ha) | Post-emergence action against STEME in % (Stellaria media [23]; 5 g/ha) | Post-emergence action against SETVI in % (Setaria viridis [24]; 5 g/ha) | Post-emergence action against SETVI in % (Setaria viridis [24]; 20 g/ha) | Post-emergence action against ECHCG in % (Echinochloa crus-galli [27]; 5 g/ha)
80%: Post-emergence action against ALOMY (Alopecurus myosuroides [1]; 20 g/ha) | Pre-emergence action against LOLRI (Lolium rigidum [6]; 320 g/ha) | Post-emergence action against CYPES in % (Cyperus esculentus [9]) | Pre-emergence action against ALOMY (Alopecurus myosuroides [12]; 80 g/ha) | Post-emergence action against VERPE in % (Veronica persica [13]) | Post-emergence action against AVEFA in % (Avena fatua [14]; 20 g/ha) | Pre-emergence action against CYPES (Cyperus esculentus [15]; 80 g/ha) | Pre-emergence action against HORMU (Hordeum murinum [16]) | Pre-emergence action against MATIN (Matricaria inodora [19]; 20 g/ha) | Pre-emergence action against ECHCG (Echinochloa crus-galli [20]; 80 g/ha) | Pre-emergence action against VIOTR (Viola tricolor [21]; 80 g/ha) | Post-emergence action against HORMU in % (Hordeum murinum [25]; 20 g/ha) | Post-emergence action against HORMU in % (Hordeum murinum [25]; 80 g/ha) | Post-emergence action against POLCO in % (Polygonum convolvulus [28]; 80 g/ha)
100%: Post-emergence action against ALOMY (Alopecurus myosuroides [1]; 80 g/ha) | Pre-emergence action against AVEFA (Avena fatua [3]; 320 g/ha) | Post-emergence action against ABUTH (Abutilon theophrasti [4]; 5 g/ha) | Post-emergence action against ABUTH (Abutilon theophrasti [4]; 20 g/ha) | Post-emergence action against ABUTH (Abutilon theophrasti [4]; 80 g/ha) | Pre-emergence action against AMARE (Amaranthus retroflexus [5]; 80 g/ha) | Pre-emergence action against AMARE (Amaranthus retroflexus [5]; 320 g/ha) | Post-emergence action against AMARE in % (Amaranthus retroflexus [7]; 5 g/ha) | Post-emergence action against AMARE in % (Amaranthus retroflexus [7]; 20 g/ha) | Post-emergence action against AMARE in % (Amaranthus retroflexus [7]; 80 g/ha) | Post-emergence action against MATIN in % (Matricaria inodora [8]; 20 g/ha) | Post-emergence action against MATIN in % (Matricaria inodora [8]; 80 g/ha) | Post-emergence action against VIOTR in % (Viola tricolor [11]; 5 g/ha) | Post-emergence action against VIOTR in % (Viola tricolor [11]; 20 g/ha) | Post-emergence action against VIOTR in % (Viola tricolor [11]; 80 g/ha) | Post-emergence action against AVEFA in % (Avena fatua [14]; 80 g/ha) | Pre-emergence action against SETVI (Setaria viridis [17]; 320 g/ha) | Post-emergence action against PHBPU in % (Pharbitis purpurea [18]; 80 g/ha) | Pre-emergence action against ECHCG (Echinochloa crus-galli [20]; 320 g/ha) | Pre-emergence action against VIOTR (Viola tricolor [21]; 320 g/ha) | Pre-emergence action against STEME (Stellaria media [22]; 80 g/ha) | Pre-emergence action against STEME (Stellaria media [22]; 320 g/ha) | Post-emergence action against STEME in % (Stellaria media [23]; 20 g/ha) | Post-emergence action against STEME in % (Stellaria media [23]; 80 g/ha) | Post-emergence action against SETVI in % (Setaria viridis [24]; 80 g/ha) | Pre-emergence action against ABUTH (Abutilon theophrasti [26]; 20 g/ha) | Pre-emergence action against ABUTH (Abutilon theophrasti [26]; 80 g/ha) | Pre-emergence action against ABUTH (Abutilon theophrasti [26]; [31]) | Post-emergence action against ECHCG in % (Echinochloa crus-galli [27]; 20 g/ha) | Post-emergence action against ECHCG in % (Echinochloa crus-galli [27]; 80 g/ha)

CCn1nnnc1NC(=O)c1ccc(C(F)(F)F)c(C(=O)n2cccn2)c1Cl [Example 2-153]
80%: Post-emergence action against ABUTH (Abutilon theophrasti [4]; 5 g/ha) | Pre-emergence action against LOLRI (Lolium rigidum [6]; 80 g/ha) | Post-emergence action against VERPE in % (Veronica persica [13]) | Post-emergence action against PHBPU in % (Pharbitis purpurea [18]; 20 g/ha) | Pre-emergence action against POLCO (Polygonum convolvulus [29]; 80 g/ha) | Post-emergence action against ECHCG in % (Echinochloa crus-galli [27]; 5 g/ha) | Post-emergence action against ECHCG in % (Echinochloa crus-galli [27]; 20 g/ha) | Post-emergence action against LOLRI in % (Lolium rigidum [30])
100%: Pre-emergence action against PHBPU (Pharbitis purpurea [2]) | Pre-emergence action against AVEFA (Avena fatua [3]; 80 g/ha) | Pre-emergence action against AVEFA (Avena fatua [3]; 320 g/ha) | Post-emergence action against ABUTH (Abutilon theophrasti [4]; 80 g/ha) | Pre-emergence action against AMARE (Amaranthus retroflexus [5]; 20 g/ha) | Pre-emergence action against AMARE (Amaranthus retroflexus [5]; 80 g/ha) | Pre-emergence action against AMARE (Amaranthus retroflexus [5]; 320 g/ha) | Post-emergence action against AMARE in % (Amaranthus retroflexus [7]; 5 g/ha) | Post-emergence action against AMARE in % (Amaranthus retroflexus [7]; 20 g/ha) | Post-emergence action against AMARE in % (Amaranthus retroflexus [7]; 80 g/ha) | Post-emergence action against MATIN in % (Matricaria inodora [8]; 20 g/ha) | Post-emergence action against MATIN in % (Matricaria inodora [8]; 80 g/ha) | Post-emergence action against VIOTR in % (Viola tricolor [11]; 80 g/ha) | Post-emergence action against AVEFA in % (Avena fatua [14]; 80 g/ha) | Pre-emergence action against CYPES (Cyperus esculentus [15]; 80 g/ha) | Pre-emergence action against CYPES (Cyperus esculentus [15]; 320 g/ha) | Pre-emergence action against SETVI (Setaria viridis [17]; 80 g/ha) | Pre-emergence action against SETVI (Setaria viridis [17]; 320 g/ha) | Pre-emergence action against MATIN (Matricaria inodora [19]; 20 g/ha) | Pre-emergence action against MATIN (Matricaria inodora [19]; 80 g/ha) | Pre-emergence action against MATIN (Matricaria inodora [19]; 320 g/ha) | Pre-emergence action against ECHCG (Echinochloa crus-galli [20]; 80 g/ha) | Pre-emergence action against ECHCG (Echinochloa crus-galli [20]; 320 g/ha) | Pre-emergence action against VIOTR (Viola tricolor [21]; 80 g/ha) | Pre-emergence action against VIOTR (Viola tricolor [21]; 320 g/ha) | Pre-emergence action against POLCO (Polygonum convolvulus [29]; 320 g/ha) | Pre-emergence action against STEME (Stellaria media [22]; 80 g/ha) | Pre-emergence action against STEME (Stellaria media [22]; 320 g/ha) | Post-emergence action against STEME in % (Stellaria media [23]; 5 g/ha) | Post-emergence action against STEME in % (Stellaria media [23]; 20 g/ha) | Post-emergence action against STEME in % (Stellaria media [23]; 80 g/ha) | Post-emergence action against SETVI in % (Setaria viridis [24]; 80 g/ha) | Pre-emergence action against ABUTH (Abutilon theophrasti [26]; 20 g/ha) | Pre-emergence action against ABUTH (Abutilon theophrasti [26]; 80 g/ha) | Pre-emergence action against ABUTH (Abutilon theophrasti [26]; [31]) | Post-emergence action against POLCO in % (Polygonum convolvulus [28]; 80 g/ha)
90%: Post-emergence action against ALOMY (Alopecurus myosuroides [1]; 80 g/ha) | Post-emergence action against ABUTH (Abutilon theophrasti [4]; 20 g/ha) | Pre-emergence action against LOLRI (Lolium rigidum [6]; 320 g/ha) | Post-emergence action against MATIN in % (Matricaria inodora [8]; 5 g/ha) | Pre-emergence action against VERPE (Veronica persica [10]) | Post-emergence action against VIOTR in % (Viola tricolor [11]; 5 g/ha) | Post-emergence action against VIOTR in % (Viola tricolor [11]; 20 g/ha) | Pre-emergence action against ALOMY (Alopecurus myosuroides [12]; 320 g/ha) | Post-emergence action against AVEFA in % (Avena fatua [14]; 20 g/ha) | Pre-emergence action against HORMU (Hordeum murinum [16]) | Pre-emergence action against SETVI (Setaria viridis [17]; 20 g/ha) | Post-emergence action against PHBPU in % (Pharbitis purpurea [18]; 80 g/ha) | Pre-emergence action against STEME (Stellaria media [22]; 20 g/ha) | Post-emergence action against ECHCG in % (Echinochloa crus-galli [27]; 80 g/ha) | Post-emergence action against POLCO in % (Polygonum convolvulus [28]; 20 g/ha)
